In patent publication US6242428A, “Nucleoside analogs and uses in treating Plasmodium falciparum infection” (Unisearch Limited, priority 1998, dated 2001):
Entries after “also recorded” stand apart in the source; their conditions may differ. Read-outs that look alike come from different tables or passages of the source.

Legend:
[1] = target: P. falciparum; assay: In vitro toxicity against P. falciparum in culture (radiolabelled hypoxanthine incorporation / lactate dehydrogenase assay); assay type: cell-based, Plasmodium falciparum, FCQ27; conditions: for toxicity against P. falciparum, in words: statement in the transport and metabolism study
Description: P. falciparum, FCQ27, was maintained in culture using the techniques described by Trager & Jensen (W. Traqer and J. B. Jensen, Science, 193 673-675 (1976)). Cultures containing 2% hematocrit suspensions of parasitized human type O^+ erythrocytes in RPMI 1640 medium, supplemented with 25 mM HEPES-KOH, pH 7.2, 25 mM NaHCO3 and 10% human type O^+ serum (v/v) are maintained in modular incubator chambers at 37° C. in a gas mixture of 5% O2, 5% CO2 and 90% N2. The isolate of P. falciparum used in these experiments was FCQ27, routinely maintained in synchronized or asynchronous in vitro cultures at low hematocrit.
The potential toxicity of nucleoside analogues against P. falciparum in culture was tested in microtitre plates over the range of drug concentrations for 24 hours. The procedures for monitoring parasite viability is well established (A. M. Gero, H. V. Scott, W. J. O'Sullivan and R. I. Christopherson, Mol. Biochem. Parasitol. 34, 87-89 (1989)) and is based on radiolabelled hypoxanthine or isoleucine incorporation. The incorporation of [G-^3 H]hypoxanthine into the nucleic acids of P. falciparum was used to assess the viability of the parasite in vitro. Microculture plates were prepared with each well containing 225 μl of a 2% hematocrit culture of asynchronous parasited erythrocytes (1% parasitized cells). Each plate, containing varying concentrations of the drug to be studied (up to 200 μM final concentration for initial screen), was incubated for 24 h at 37° C. in a gas mixture of 5% O2, 5% CO2 and 90% N2, at which point [G-^3 H] hypoxanthine was added to each well and the incubation continued under identical conditions for a further 18-20 h. The control infected cells (i.e. without drug), routinely reached a parasitemia of 6-8% before harvesting. Expediency was aided by 96-well plate counter using lactate dehydrogenase for the drug susceptibility assay (L. K. Basco, F. Marguet, M. T. Makler and J. Lebbras, Exp. Parasitol. 80, 260-271 (1995); M. T. Makler and D. J. Hinrichs; Am. J. Trop. Med. Hyg. 48, 205-210 (1993)). This assay gave the identical results to the hypoxanthine technique. In addition, for each experiment, microscopic counting of Giemsa stained thin slides was used as a control.
The biological screen involved evaluation of the compounds against the protozoan P. falciparum in in vitro culture. The range of drug concentrations was used independently by two assays. One, radiolabelled hypoxanthine incorporation into the nucleic acid of P. falciparum, and the other, more expedient assay, a 96-well plate susceptibility assay using lactate dehydrogenase. Both assays gave identical results. In addition, microscopic counting of Giemsa stained thin slides was used as a control. Examples of experimental curves are attached as Appendix 2. The biological tests were done at several concentrations. The highest concentration was 200 μM, the compounds were considered active at concentrations less than 40 μM.

[2] = tested on: P. falciparum infected erythrocytes (trophozoites); assay type: in vitro ADME, human erythrocytes infected with Plasmodium falciparum
Description: The metabolism of the L-nucleoside conjugates was studied by HPLC analysis. The primary aim was to determine their ability to be catabolized by parasite purine salvage enzymes. Some effect on the purine metabolic pools was also observed.
For each HPLC determination 200 μL of packed cells of 80-90% trophozoite infected cells were used. These were isolated from in vitro cultures by synchronization of the parasites in in vitro cultures using sterile D-sorbitol (L. Lambros and J. P. Vanderberg, Parasitol. 65, 418-420 (1979)) followed by separation of the trophozoites from non infected erythrocytes by Percoll gradients as described previously (A. M. Gero, H. V. Scott, W. J. O'Sullivan and R. I. Christopherson, Mol. Biochem. Parasitol. 34, 87-89 (1989)). Trophozoites were incubated at 37° C. for 2 hours with each compound to be tested. Compounds were incubated with both whole infected cells as whole and lyzed uninfected normal erythrocytes to determine:
a) entry to the cell (whether they were transported);
Drug incubation was terminated by centrifugation through silicon oil using the method of Upston and Gero (J. M. Upston and A. M. Gero, Biochem. Biophys. Acta. 1236, 249-258 (1995)). This procedure separated intact trophozoites from extracellular non-transported drug solution.
The metabolism of nucleosides with potential chemotherapeutic activity was assessed by the analysis of cytoplasmic samples by reverse phase ion-pair high performance liquid chromatography (R. S. Toguzov, Y. V. Tikhonov, A. M. Pimenov, V. Prokudin, Journal of Chromatography, I. Biomedical Appl. 434, 447-453 (1988)). Nucleotides, nucleosides and bases were separated by this HPLC method.
It has been established that transport and uptake in parasite invaded cells is different from that of normal blood erythrocytes (A. M. Gero & A. M. Wood, In: Pyrine & Pyrimidine Methabolism in Man VII, Part A. (R. A. Harkness et al., Eds) Plenum Press, NY, 169-172 (1991)). Invasion by the malaria parasite comprises the cell membrane, allowing penetration of unnatural substances of various size and shape, whereas normal cells are very selective in uptake. It was shown that L-nucleosides and their derivatives easily penetrate invaded cells, while they have a very slow rate of uptake into normal cells, if they enter at all. In order to obtain preliminary data on transport, uptake and metabolism, the HPLC method was used to analyze the following 10 Lipitek compounds: L-101, L-103, L-109, L-111, L-117, L-133, L-138, GCl 1007, GCl 1027, GCl 1069.
These compounds were chosen for the identification of possible metabolites. In this experiment the compounds were incubated with both whole infected cells, and with whole and lysed uninfected cells, followed by the separation of unreacted compound and HPLC analysis.

[3] = Table 1, 24 h drug exposure, up to 200 μM, read-out: IC50
[4] = Plasmodium falciparum, 24 h, Table 1, 24 h drug exposure, up to 200 μM, read-out: IC50
[5] = Plasmodium falciparum, Erythrocyte, 24 h, Table 6, SATE derivatives of FUdR, read-out: ID50 (the source's name)
[6] = Plasmodium falciparum, Table 2, FUdR linkage position 5', read-out: IC50
[7] = Plasmodium falciparum, Table 5, β-D-FUdR and possible metabolic products, read-out: IC50

## 6-thio-β-L-purine [GCI 1076]
[1]; [3]
  IC50: > 200 µM

## O=c1[nH]cc(F)c(=O)[nH]1 [5FUracil, 5-fluorouracil, reference compound]
[1]; Plasmodium falciparum
  IC50: 6 µM

## O=c1[nH]c(=O)n([C@@H]2OC[C@H](O)[C@@H]2O)cc1F [GCI 1007, α-L-erythrofuranosyl-5-fluorouracil]
[2]
  entry to the infected cell: entered the infected cells
[1]; [4]
  IC50: > 200 µM
[1]
  toxicity against P. falciparum, in words: toxic against P. falciparum

## Nc1ncnc2c1ncn2[C@@H]1O[C@@H](CO)[C@H](O)[C@H]1O [GCI 1018, α-L-arabinofuranosyl adenine]
[1]; Plasmodium falciparum, 24 h
  IC50: > 200 µM

## O=c1[nH]c(=O)n([C@H]2C[C@@H](O)[C@H](CO)O2)cc1F [GCI 1027, 2'-deoxy-α-L-5-fluorouridine]
[2]
  entry to the infected cell: entered the infected cells
[1]
  In vitro activity against P. falciparum, in words: no activity
  toxicity against P. falciparum, in words: toxic against P. falciparum
[1]; [4]
  IC50: > 200 µM
[1]; [5]
  IC50: > 200 µM

## Nc1nc2c(ncn2[C@H]2O[C@@H](CO)[C@H](O)[C@@H]2O)c(=O)[nH]1 [GCI 1030, β-L-G]
[1]; [4]
  IC50: > 200 µM

## O=c1[nH]cnc2c1ncn2[C@H]1O[C@@H](CO)[C@H](O)[C@@H]1O [GCI 1033, β-L-I]
[1]; [4]
  IC50: > 200 µM

## Nc1ncnc2c1ncn2[C@@H]1C[C@@H](O)[C@H](CO)O1 [GCI 1036, β-L-Da]
[1]; [4]
  IC50: > 200 µM

## O=c1[nH]cnc2c1ncn2[C@@H]1C[C@@H](O)[C@H](CO)O1 [GCI 1037, β-L-dI]
[1]; [4]
  IC50: > 200 µM

## Nc1ncnc2c1ncn2[C@@H]1O[C@@H](CO)[C@H](O)[C@@H]1O [GCI 1066, α-L-A]
[1]; Plasmodium falciparum, 24 h
  IC50: > 200 µM

## Nc1ncnc2c1ncn2[C@H]1C[C@@H](O)[C@H](CO)O1 [GCI 1069, α-L-dA]
[2]
  entry to the infected cell: entered the infected cells
[1]; [4]
  IC50: > 200 µM
[1]
  toxicity against P. falciparum, in words: toxic against P. falciparum

## Nc1nc2c(ncn2[C@@H]2C[C@@H](O)[C@H](CO)O2)c(=O)[nH]1 [GCI 1070, β-L-dG]
[1]; [4]
  IC50: > 200 µM

## Nc1ncnc2c1ncn2[C@@H]1CC[C@H](CO)O1 [GCI 1077, β-L-ddA]
[1]; [4]
  IC50: > 200 µM

## Nc1ncnc2c1ncn2[C@H]1CC[C@H](CO)O1 [GCI 1079, α-L-ddA]
[1]; [4]
  IC50: > 200 µM

## CNc1ncnc2c1ncn2[C@H]1O[C@@H](CO)[C@H](O)[C@@H]1O [GCI 1085, N^6 -methyl-β-L-A]
[1]; [4]
  IC50: > 200 µM

## O=c1[nH]c(=O)n([C@H]2C[C@@H](OP(O)(=S)OC[C@H]3O[C@@H](n4cc(F)c(=O)[nH]c4=O)C[C@@H]3O)[C@H](CO)O2)cc1F (stereo partly drawn) [L-103 thio, [α-L,β-D]-FUdR, S = P-O]
[1]
  In vitro activity against P. falciparum, in words: reduced dramatically
[1]; Plasmodium falciparum
  IC50: > 200 µM
[1]; Plasmodium falciparum, 24 h
  IC50: > 200 µM

## Nc1ccn([C@@H]2C[C@@H](OP(=O)(O)OC[C@H]3O[C@@H](n4cc(F)c(=O)[nH]c4=O)C[C@@H]3O)[C@H](CO)O2)c(=O)n1 [L-113]
[1]; [4]
  IC50: 17 µM
[1]; [6]
  IC50: 17 µM
[1]; Plasmodium falciparum, Table 3, β-L configuration of the L-nucleoside, read-out: IC50
  IC50: 17 µM

## O=c1ccn([C@@H]2C[C@@H](OP(O)(=S)OC[C@H]3O[C@@H](n4cc(F)c(=O)[nH]c4=O)C[C@@H]3O)[C@H](CO)O2)c(=O)[nH]1 (stereo partly drawn) [L-117 thio, β-L-dU, β-D-FUdR S = P-O]
[1]
  In vitro activity against P. falciparum, in words: reduced dramatically
[1]; Plasmodium falciparum
  IC50: > 200 µM
[1]; Plasmodium falciparum, 24 h
  IC50: > 200 µM

## Nc1ncnc2c1ncn2[C@H]1C[C@@H](OP(=O)(O)OC[C@H]2O[C@@H](n3cc(F)c(=O)[nH]c3=O)C[C@@H]2O)[C@H](CO)O1 [L-125, α-L-dA, β-D-FUdR]
[1]
  In vitro activity against P. falciparum, in words: reduces the dimer activity in comparison with dimers containing the β-L unit
[1]; [4]
  IC50: 60 µM
[1]; [6]
  IC50: 60 µM
[1]; Plasmodium falciparum, Table 3, α-L configuration of the L-nucleoside, read-out: IC50
  IC50: 60 µM

## O=c1[nH]c(=O)n([C@H]2C[C@H](OP(O)(=S)OC[C@H]3O[C@@H](n4cc(F)c(=O)[nH]c4=O)C[C@@H]3O)[C@@H](CO)O2)cc1F (stereo partly drawn) [L-128, β-D, β-D-FUdR] S = P-O]
[1]
  In vitro activity against P. falciparum, in words: only active phosphorothioate analog; also recorded: greater in comparison with all possible products of hydrolysis; also recorded: most active compound tested
[1]; L-128 versus L-101
  factor of increase in activity on replacing phosphate by phosphorothioate: 10
[1]; Plasmodium falciparum
  IC50: 1.5 µM
[1]; Plasmodium falciparum, 24 h
  IC50: 1.5 µM

## Nc1ncnc2c1ncn2[C@@H]1C[C@@H](OP(O)(=S)OC[C@H]2O[C@@H](n3cc(F)c(=O)[nH]c3=O)C[C@@H]2O)[C@H](CO)O1 (stereo partly drawn) [L-138-thio, β-L-dA, β-D-FUdR, S = P-O]
[1]
  In vitro activity against P. falciparum, in words: reduced dramatically
[1]; Plasmodium falciparum, 24 h
  IC50: 100 µM

## O=[N+]([O-])c1ccc(CSc2ncnc3c2ncn3[C@@H]2O[C@H](CO)[C@@H](O)[C@H]2O)cc1 [NBMPR, nitrobenzylthionosine, reference compound]
[1]; [4]
  IC50: 100 µM

## O=c1[nH]c(=O)n([C@H]2C[C@H](O)[C@@H](COP(=O)(O)O)O2)cc1F [β-D-5'-FUdRmP, β-D-FUdR monophosphate, reference compound]
[1]; [7]
  IC50: 50 µM

## O=c1[nH]c(=O)n([C@H]2C[C@H](O)[C@@H](CO)O2)cc1F [β-D-FUdR, β-D-5-fluoro-2'-deoxyuridine, reference compound]
[1]; [7]
  IC50: 34 µM

## O=c1[nH]c(=O)n([C@@H]2C[C@@H](O)[C@H](CO)O2)cc1F [β-L-FUdR, β-L-5-fluoro-2'-deoxyuridine]
[1]; [5]
  IC50: > 200 µM

## α-L-FUdR 5'SATE [B06]
[1]; [3]
  IC50: 150 µM

## α-L-dT, NBMPR [L-146]
[1]; [3]
  IC50: > 200 µM

## β-D-FUdR 3'-5'SATE [B03]
[1]; [3]
  IC50: 6 µM

## β-D-FUdR 3'SATE [B01]
[1]; [3]
  IC50: 100 µM

## β-D-FUdR 5'SATE [B02]
[1]; [3]
  IC50: 60 µM

## β-D-FUdR, β-L-A [L-144]
[1]; [3]
  IC50: 140 µM
[1]; Table 2, FUdR linkage position 3', read-out: IC50
  IC50: 140 µM

## β-L-FUdR 5'SATE [B04]
[1]; [3]
  IC50: 200 µM

## β-L-dU, NBMPR [L-145]
[1]; [3]
  IC50: > 200 µM

## β-L-mercapto-G [GCI 1034]
[1]; [3]
  IC50: > 200 µM
